What follows are compounds tested against T1, wild-type human ALK cytoplasmic domain (amino acids 1058-1620) (Homo sapiens, UniProt Q9UM73) (assay: ALK Inhibition in Enzyme Assay (Lance TR-FRET)). Settings: not given.
T1 construct: The cytoplasmic domain (amino acids 1058-1620) of wild-type human ALK; GST (N); made in house; host or cells: SF9 insect cells
Type: biochemical
Outline: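 TR-FRET read-out (Eu-W1024 PT66 anti-phosphotyrosine plus streptavidin-allophycocyanin, 320 nm excitation) quantified biotinylated peptide phosphorylation by the purified kinase. Reaction ran 90 minutes at room temperature before quenching with 20 mM EDTA in Tris pH 7.5 buffer with NaCl, BSA and Tween-20.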

T1 sequence (Q9UM73 1058-1620): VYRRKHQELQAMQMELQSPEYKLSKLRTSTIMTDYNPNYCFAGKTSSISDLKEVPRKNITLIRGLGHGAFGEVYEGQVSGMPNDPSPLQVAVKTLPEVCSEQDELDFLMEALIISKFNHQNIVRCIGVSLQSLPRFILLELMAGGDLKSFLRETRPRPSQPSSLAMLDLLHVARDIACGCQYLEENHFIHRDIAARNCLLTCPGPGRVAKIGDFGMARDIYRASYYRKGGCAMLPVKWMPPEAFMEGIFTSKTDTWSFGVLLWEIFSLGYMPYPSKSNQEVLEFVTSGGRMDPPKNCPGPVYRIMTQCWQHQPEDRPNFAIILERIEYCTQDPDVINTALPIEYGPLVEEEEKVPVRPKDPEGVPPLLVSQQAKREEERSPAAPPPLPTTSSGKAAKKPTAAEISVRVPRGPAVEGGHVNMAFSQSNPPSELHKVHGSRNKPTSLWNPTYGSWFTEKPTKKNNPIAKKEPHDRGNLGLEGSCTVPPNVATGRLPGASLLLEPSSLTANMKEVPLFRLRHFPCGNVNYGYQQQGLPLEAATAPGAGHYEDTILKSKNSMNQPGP

Row | IC50 | Structure (SMILES)
1 | 5000 to 10000 nM | COc1cc(Nc2nccc(N3CCC[C@H](C(=O)NCCCc4ccccc4)C3)n2)cc(OC)c1OC [Example 126, (S)-N-(3-phenylpropyl)-1-(2-((3,4,5-trimethoxyphenyl)amino)-4-pyrimidinyl)-3-piperidinecarboxamide]

Same assay, conditions: 2 nM enzyme, ATP at 40 μM (Km apparent), 90 minutes, mean of three replicates; read-out: ALK IC50

Row | IC50 | Structure (SMILES)
2 | 1000 to 5000 nM | COc1cc(Nc2nccc(N3CCC[C@H](C(=O)NCc4ccc(S(C)(=O)=O)cc4)C3)n2)cc(OC)c1OC [Example 122, (S)-N-(4-(methylsulfonyl)benzyl)-1-(2-((3,4,5-trimethoxyphenyl)amino)-4-pyrimidinyl)-3-piperidinecarboxamide]
3 | 100 to 1000 nM | COc1cc(Nc2nccc(N3CCC[C@H](C(=O)NCc4ccc(-c5ccc(F)cc5)cc4)C3)n2)cc(OC)c1OC [Example 123, (S)-N-((4′-fluoro-4-biphenylyl)methyl)-1-(2-((3,4,5-trimethoxyphenyl)amino)-4-pyrimidinyl)-3-piperidinecarboxamide]
4 | 1000 to 5000 nM | COc1cc(Nc2nccc(N3CCC[C@H](C(=O)NCc4ccc(NC(C)=O)cc4)C3)n2)cc(OC)c1OC [Example 124, (S)-N-(4-(acetylamino)benzyl)-1-(2-((3,4,5-trimethoxyphenyl)amino)-4-pyrimidinyl)-3-piperidinecarboxamide]
5 | < 50 nM | COc1cc(Nc2nccc(N3CCC[C@H](C(=O)NC(C#N)c4ccc(OC(F)(F)F)cc4)C3)n2)cc(OC)c1OC (stereo partly drawn) [Example 127, (S)-N-(cyano(4-(trifluoromethoxy)phenyl)methyl)-1-(2-(3,4,5-trimethoxyphenylamino)pyrimidin-4-yl)piperidine-3-carboxamide]
6 | 1000 to 5000 nM | Cc1ccc(CNC(=O)[C@H]2CCCN(c3ccnc(Nc4cnc5ccccc5c4)n3)C2)cc1 [Example 130, (3S)-N-(4-methylbenzyl)-1-(2-(3-quinolinylamino)-4-pyrimidinyl)-3-piperidinecarboxamide]
7 | 1000 to 5000 nM | Cc1ccc(CNC(=O)[C@H]2CCCN(c3ccnc(Nc4ccc5[nH]ccc5c4)n3)C2)cc1 [Example 131, (3S)-1-(2-(1H-indol-5-ylamino)-4-pyrimidinyl)-N-(4-methylbenzyl)-3-piperidinecarboxamide]
8 | 1000 to 5000 nM | COc1ccccc1Nc1nccc(N2CCC[C@H](C(=O)NCc3ccc(C)cc3)C2)n1 [Example 133, (3S)-1-(2-((2-methoxyphenyl)amino)-4-pyrimidinyl)-N-(4-methylbenzyl)-3-piperidinecarboxamide]
9 | 1000 to 5000 nM | Cc1ccc(CNC(=O)[C@H]2CCCN(c3ccnc(Nc4cccc(C(F)(F)F)c4)n3)C2)cc1 [Example 137, (3S)-N-(4-methylbenzyl)-1-(2-((3-(trifluoromethyl)phenyl)amino)-4-pyrimidinyl)-3-piperidinecarboxamide]
10 | 1000 to 5000 nM | COc1ccc(NC(C)=O)cc1Nc1nccc(N2CCC[C@H](C(=O)NCc3ccc(C)cc3)C2)n1 [Example 138, (3S)-1-(2-((5-(acetylamino)-2-methoxyphenyl)amino)-4-pyrimidinyl)-N-(4-methylbenzyl)-3-piperidinecarboxamide]
11 | 1000 to 5000 nM | Cc1ccc(CNC(=O)[C@H]2CCCN(c3ccnc(Nc4ccc(N5CCOCC5)cc4)n3)C2)cc1 [Example 139, (3S)-N-(4-methylbenzyl)-1-(2-((4-(4-morpholinyl)phenyl)ami-no)-4-pyrimidinyl)-3-piperidinecarboxamide]
12 | 100 to 1000 nM | Cc1ccc(CNC(=O)[C@H]2CCCN(c3ccnc(Nc4cccc5c4CNC5=O)n3)C2)cc1 [Example 141, (3S)-N-(4-methylbenzyl)-1-(2-((1-oxo-2,3-dihydro-1H-isoindol-4-yl)amino)-4-pyrimidinyl)-3-piperidinecarboxamide]
13 | 1000 to 5000 nM | CC(=O)N1CC(C)(C)c2ccc(Nc3nccc(N4CCC[C@H](C(=O)NCc5ccc(C)cc5)C4)n3)cc21 [Example 142, (3S)-1-(2-((1-acetyl-3,3-dimethyl-2,3-dihydro-1H-indol-6-yl)amino)-4-pyrimidinyl)-N-(4-methylbenzyl)-3-piperidinecarboxamide]
14 | 100 to 1000 nM | Cc1ccc(CNC(=O)[C@H]2CCCN(c3ccnc(Nc4cccc(Cn5nccn5)c4)n3)C2)cc1 [Example 143, (3S)-N-(4-methylbenzyl)-1-(2-((3-(2H-1,2,3-triazol-2-ylmethyl)phenyl)amino)-4-pyrimidinyl)-3-piperidinecarboxamide]
15 | 1000 to 5000 nM | Cc1ccc(CNC(=O)[C@H]2CCCN(c3ccnc(Nc4cc(C5CCN(C(=O)OC(C)(C)C)CC5)[nH]n4)n3)C2)cc1 [Example 144, tert-butyl 4-(3-((4-((3S)-3-((4-methylbenzyl)carbamoyl)-1-piperidinyl)-2-pyrimidinyl)amino)-1H-pyrazol-5-yl)-1-piperidinecarboxylate]
16 | 5000 to 10000 nM | Cc1ccc(CNC(=O)[C@H]2CCCN(c3ccnc(Nc4cc(-c5ccc(C)cc5)[nH]n4)n3)C2)cc1 [Example 145, (3S)-N-(4-methylbenzyl)-1-(2-((5-(4-methylphenyl)-1H-pyrazol-3-yl)amino)-4-pyrimidinyl)-3-piperidinecarboxamide]
17 | 100 to 1000 nM | COc1cc(Nc2nccc(N3CCC[C@H](C(=O)NCc4ccc(C)cc4)C3)n2)cc2c1OCCO2 [Example 146, (3S)-1-(2-((8-methoxy-2,3-dihydro-1,4-benzodioxin-6-yl)amino)-4-pyrimidinyl)-N-(4-methylbenzyl)-3-piperidinecarboxamide]
18 | 5000 to 10000 nM | Cc1ccc(CNC(=O)[C@H]2CCCN(c3ccnc(Nc4ccc(=O)n(C)c4)n3)C2)cc1 [Example 147, (3S)-N-(4-methylbenzyl)-1-(2-((1-methyl-6-oxo-1,6-dihydro-3-pyridinyl)amino)-4-pyrimidinyl)-3-piperidinecarboxamide]
19 | 100 to 1000 nM | CCOc1cccc(Nc2nccc(N3CCC[C@H](C(=O)NCc4ccc(C)cc4)C3)n2)c1 [Example 148, (3S)-1-(2-((3-ethoxyphenyl)amino)-4-pyrimidinyl)-N-(4-methylbenzyl)-3-piperidinecarboxamide]
20 | 100 to 1000 nM | Cc1ccc(CNC(=O)[C@H]2CCCN(c3ccnc(Nc4cccc(Oc5ccccc5)c4)n3)C2)cc1 [Example 149, (3S)-N-(4-methylbenzyl)-1-(2-((3-phenoxyphenyl)amino)-4-pyrimidinyl)-3-piperidinecarboxamide]
21 | 100 to 1000 nM | Cc1ccc(CNC(=O)[C@H]2CCCN(c3ccnc(Nc4cccc(C(=O)c5ccccc5)c4)n3)C2)cc1 [Example 150, (3S)-N-(4-methylbenzyl)-1-(2-((3-(phenylcarbonyl)phenyl)amino)-4-pyrimidinyl)-3-piperidinecarboxamide]
22 | 100 to 1000 nM | Cc1ccc(CNC(=O)[C@H]2CCCN(c3ccnc(Nc4cccc(S(N)(=O)=O)c4)n3)C2)cc1 [Example 151, (3S)-N-(4-methylbenzyl)-1-(2-((3-sulfamoylphenyl)amino)-4-pyrimidinyl)-3-piperidinecarboxamide]
23 | 100 to 1000 nM | Cc1ccc(CNC(=O)[C@H]2CCCN(c3ccnc(Nc4cccc(Cc5ccccc5)c4)n3)C2)cc1 [Example 152, (3S)-1-(2-((3-benzylphenyl)amino)-4-pyrimidinyl)-N-(4-methylbenzyl)-3-piperidinecarboxamide]
24 | 1000 to 5000 nM | Cc1ccc(CNC(=O)[C@H]2CCCN(c3ccnc(Nc4cc(C(C)(C)C)cc(C(C)(C)C)c4)n3)C2)cc1 [Example 153, (3S)-1-(2-((3,5-di-tert-butylphenyl)amino)-4-pyrimidinyl)-N-(4-methylbenzyl)-3-piperidinecarboxamide]

— patent US8716281B2, “Pyrimidine compounds that inhibit anaplastic lymphoma kinase” (Amgen Inc., priority 2010, dated 2014)
